Target: T1, PR-A (Homo sapiens, UniProt P06401)
T1 construct: expressed in transfected cells
T1 sequence (P06401 1-769 isoform P06401-2): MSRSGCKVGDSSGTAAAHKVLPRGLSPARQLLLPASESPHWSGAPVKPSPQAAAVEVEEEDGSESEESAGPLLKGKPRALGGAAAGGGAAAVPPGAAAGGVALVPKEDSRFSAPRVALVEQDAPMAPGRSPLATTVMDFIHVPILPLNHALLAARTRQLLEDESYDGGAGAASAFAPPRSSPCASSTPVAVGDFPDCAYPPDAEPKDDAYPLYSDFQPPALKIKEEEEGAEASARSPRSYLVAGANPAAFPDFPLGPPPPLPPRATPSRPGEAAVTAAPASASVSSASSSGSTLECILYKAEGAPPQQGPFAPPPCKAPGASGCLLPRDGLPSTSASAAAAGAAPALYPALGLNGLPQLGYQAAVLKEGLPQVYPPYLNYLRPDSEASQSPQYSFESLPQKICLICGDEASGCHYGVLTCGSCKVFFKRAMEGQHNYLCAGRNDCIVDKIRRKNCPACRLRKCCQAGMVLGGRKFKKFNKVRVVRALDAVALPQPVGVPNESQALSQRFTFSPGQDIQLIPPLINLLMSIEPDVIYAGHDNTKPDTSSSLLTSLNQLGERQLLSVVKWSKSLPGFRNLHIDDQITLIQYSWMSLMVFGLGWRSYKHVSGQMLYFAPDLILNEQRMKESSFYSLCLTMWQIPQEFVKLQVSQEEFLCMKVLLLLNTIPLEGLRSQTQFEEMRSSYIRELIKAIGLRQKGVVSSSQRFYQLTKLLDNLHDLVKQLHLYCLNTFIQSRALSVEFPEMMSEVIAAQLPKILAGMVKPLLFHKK
Assay: Transcriptional assay: integrin alpha 6 promoter-luciferase in HeLa cells cotransfected with PR-A
Assay type: cell-based
Conditions: 10 nM progesterone 24 hours

Transcription of the integrin alpha 6 promoter (luciferase): not regulated at all
SMILES: CC(=O)[C@H]1CC[C@H]2[C@@H]3CCC4=CC(=O)CC[C@]4(C)[C@H]3CC[C@]12C [progesterone]

Reference: US6750015B2 (priority 2000, dated 2004)
